Experimental findings from patent US12263156B2, “Use of small molecule inhibitors of the BfrB:Bfd interaction in biofilms” (priority 2020, dated 2025) are described below.

In experiment [1] the test system is P. aeruginosa PAO1 pellicle cells. Kind of experiment: Total intracellular iron in biofilm-embedded cells. The format is cell-based, Pseudomonas aeruginosa. To be noted: 24 h; KM-5-25 40 μM, KM-5-66 20 μM. The text has this:
Recombinant BfrB (BfrBrec) was used as a standard for the electrophoretic mobility of BfrB. The lane corresponding to untreated control was loaded with 0.5× the volume of the lanes loaded with lysates from treated pellicles to account for the ˜2-fold larger number of viable cells in the untreated pellicles. Lanes loaded with treated pellicle lysates show greater accumulation of iron in BfrB relative to untreated cells. […] (A), (C) and (D) show the average of results from 3 biological replicates, p<0.001 is denoted by *** relative to untreated.
Pellicle biofilms were grown for 48 hours as described above. The pellicles were transferred onto square (2 cm×2 cm) glass coverslips by gently contacting the pellicle with the coverslip. […] Levels of total intracellular iron were determined as reported previously:^23, 86 the cell pellets were treated with 500 μL of freshly prepared digestion reagent (0.6 N HCl, 2.25% (w/v) KMnO4 in water), thoroughly mixed by vortexing, and then incubated at 65° C. for 3.5 hours. […] The iron concentration was measured from the absorbance of the Fe^2+-Ferene S complex (ε593=34.5 mM^−1 cm^−1),^87 normalized by the viable cell counts and reported as Fe atoms per cell. […]

In experiment [2] the test system is EYFP-expressing P. aeruginosa PAO1 pellicle biofilms. Briefly: Pellicle biofilm assay (CLSM imaging, COMSTAT biomass). The following applies: 2-day old pellicles, 24 h; KM-5-25 80 μM, KM-5-66 50 μM (about 1.2× the IC50). The format is cell-based, Pseudomonas aeruginosa. The method, then: Pellicle biofilms of EYFP-expressing P. aeruginosa PAO1 or clinical isolates were grown in PI media supplemented with 20 μM Fe. Starter cultures were diluted to OD600=0.001 in 4 mL media, placed in 35×10 mm petri dishes and incubated statically at 30° C. for 48 hours. The pellicles were transferred onto circular (1.5 cm diameter) glass coverslips by gently allowing the surface of a coverslip to contact a pellicle. The pellicle-adhered coverslip was washed in PBS and then deposited on top of 1.5 mL of AB challenge media contained in a well of a 12-well microplate, with the pellicle exposed to the media. […] The coverslip-adhered pellicles were exposed to challenge media at 30° C. for 24 hours, changing the challenge media every 12 hours by transferring the pellicle-adhered coverslip to a new plate containing pre-warmed challenge media.
Excess fluorescent dye was washed with PBS, the coverslip was mounted on a glass slide using 5 μL of SlowFade (Invitrogen, Carlsbad, CA) and the edges sealed with fingernail polish. CLSM image stacks (z-step size of 0.3 μm) were acquired with the aid of a Leica TCS SP8 microscope, as described above. Quantitative analysis was performed by determination of pellicle biomass using COMSTAT^54 and the Otsu method of automatic thresholding.^85
To expand the observations made with flow cell biofilms into a second biofilm model, the susceptibility of biofilms grown at the air-liquid interface (pellicles) was also studied.^56-57 Pellicle biofilms (henceforth pellicles) are an attractive alternative platform to study biofilms because pellicles are amenable to imaging by CLSM and to harvesting, which can be desirable for additional biofilm analysis.^26 To determine the susceptibility of pellicles to antibiotics or inhibitors of the BfrB-Bfd complex, 2-day old pellicles of EYFP-expressing P. aeruginosa cells were cultured in PI media supplemented with 20 μM Fe. The pellicles were transferred onto glass coverslips by allowing the surface of the coverslip to contact a pellicle.

For the molecule `O=C1NC(=O)c2c(NCc3cc(Cl)ccc3O)cccc21` [KM-5-25], in experiment [1], the “total intracellular iron normalized to viable cell counts, relative to untreated biofilms” value is listed as approximately 2.5 fold. Moreover, in experiment [2], the “cells in the pellicle treated (killed), COMSTAT” value is recorded as approximately 85%.

Regarding `O=C1NC(=O)c2c(NCCCc3cc(O)cc(Cl)c3)cccc21` [KM-5-66], the “total intracellular iron normalized to viable cell counts, relative to untreated biofilms” value in experiment [1] is approximately 2.5 fold. Further, the “cells in the pellicle treated (killed), COMSTAT” value in experiment [2] is reported as approximately 85%.
